Reference: patent publication US20260285850A1, “SUBSTITUTED OXAZOLIDINONES AND IMIDAZOLINONES AS HERBICIDES” (FMC CORPORATION, priority 2023, published 2026)

Legend:
Assay type in all cases: in vivo
[1] = test system: ragweed (common ragweed, Ambrosia artemisiifolia); assay: Test A preemergence soil spray, visual injury rating 0-100; conditions: 10 days
Outline: (§1)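 Directed preemergence spray onto seeded soil or postemergence spray onto 2-10 cm plants (loam plus sand); compound carried in surfactant-containing non-phytotoxic solvent. Injury rated by eye after 10 d greenhouse growth; 0 = no effect, 100 = complete control.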

[2] = test system: green foxtail (Setaria viridis); assay: as above; conditions: 10 days
Outline: as §1

[3] = test system: wheat (Triticum aestivum); assay: as above; conditions: 10 days
Outline: as §1

[4] = test system: ryegrass, Italian (italian ryegrass, Lolium multiflorum); assay: as above; conditions: 10 days
Outline: as §1

[5] = test system: blackgrass (Alopecurus myosuroides); assay: as above; conditions: 10 days
Outline: as §1

[6] = test system: kochia (Bassia scoparia); assay: as above; conditions: 10 days
Outline: as §1

[7] = test system: oat, wild (wild oat, Avena fatua); assay: as above; conditions: 10 days
Outline: as §1

[8] = test system: palmer (palmer amaranth, palmer pigweed, Amaranthus palmeri); assay: as above; conditions: 10 days
Outline: as §1

[9] = test system: soybean (Glycine max); assay: as above; conditions: 10 days
Outline: as §1

[10] = test system: barnyardgrass (Echinochloa crus-galli); assay: as above; conditions: 10 days
Outline: as §1

[11] = test system: corn (Zea mays); assay: as above; conditions: 10 days
Outline: as §1

[12] = test system: sedge, umbrella (small-flower umbrella sedge, Cyperus difformis); assay: Test B flooded paddy test, visual plant response rating 0-100; conditions: 250 g ai/ha, Flood, applied to paddy water, evaluated after 13 days
Outline: (§2)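 In this flooded assay, 2-leaf seedlings received compound through the water layer, kept at 3 cm over the soil. Plants were held 13 days in a greenhouse and then visually compared with control pots.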

[13] = test system: rice (Oryza sativa); assay: as above; conditions: 250 g ai/ha, Flood, applied to paddy water, evaluated after 13 days
Outline: as §2

[14] = test system: barnyardgrass (Echinochloa crusgalli); assay: as above; conditions: 250 g ai/ha, Flood, applied to paddy water, evaluated after 13 days
Outline: as §2

[15] = test system: ducksalad (Heteranthera limosa); assay: as above; conditions: 250 g ai/ha, Flood, applied to paddy water, evaluated after 13 days
Outline: as §2

[16] = test system: horseweed (Erigeron canadensis); assay: Test A postemergence application, visual injury rating 0-100
Outline: as §1

[17] = test system: ragweed (common ragweed, Ambrosia artemisiifolia); assay: as above
Outline: as §1

[18] = test system: green foxtail (Setaria viridis); assay: as above
Outline: as §1

[19] = test system: wheat (Triticum aestivum); assay: as above
Outline: as §1

[20] = test system: ryegrass, Italian (italian ryegrass, Lolium multiflorum); assay: as above
Outline: as §1

[21] = test system: blackgrass (Alopecurus myosuroides); assay: as above
Outline: as §1

[22] = test system: kochia (Bassia scoparia); assay: as above
Outline: as §1

[23] = test system: oat, wild (wild oat, Avena fatua); assay: as above
Outline: as §1

[24] = test system: palmer (palmer amaranth, palmer pigweed, Amaranthus palmeri); assay: as above
Outline: as §1

[25] = test system: soybean (Glycine max); assay: as above
Outline: as §1

[26] = test system: barnyardgrass (Echinochloa crus-galli); assay: as above
Outline: as §1

[27] = test system: corn (Zea mays); assay: as above
Outline: as §1

[28] = 62 g ai/ha, 0 = no effect, 100 = complete control
[29] = 62 g ai/ha, postemergence, 10 days, 0 = no effect, 100 = complete control
[30] = Postemergence, 16 g ai/ha, greenhouse 10 days, 0 no effect, 100 complete control

COC(=O)COC(=O)C1=CCC(NC(=O)C2(C)CN(c3cc(Cl)cc(Cl)c3)C(=O)O2)C1 (centres unmarked) [Compound 109]
Ragweed plant response rating ([1]; 16 g ai/ha, 0 to 100 scale): 0
Ragweed plant response rating (0-100) [1, 28]: 0
Foxtail, Green plant response rating ([2]; 16 g ai/ha, 0 to 100 scale): 0
Foxtail, Green plant response rating (0-100) [2, 28]: 0
Wheat plant response rating ([3]; 16 g ai/ha, 0 to 100 scale): 0
Wheat plant response rating (0-100) [3, 28]: 0
Ryegrass, Italian plant response rating ([4]; 16 g ai/ha, 0 to 100 scale): 0
Ryegrass, Italian plant response rating (0-100) [4, 28]: 0
Blackgrass plant response rating ([5]; 16 g ai/ha, 0 to 100 scale): 0
Blackgrass plant response rating (0-100) [5, 28]: 0
Kochia plant response rating ([6]; 16 g ai/ha, 0 to 100 scale): 0
Kochia plant response rating (0-100) [6, 28]: 0
Oat, Wild plant response rating ([7]; 16 g ai/ha, 0 to 100 scale): 0
Oat, Wild plant response rating (0-100) [7, 28]: 0
Pigweed, Palmer plant response rating ([8]; 16 g ai/ha, 0 to 100 scale): 0
Pigweed, Palmer plant response rating (0-100) [8, 28]: 0
Soybean plant response rating ([9]; 16 g ai/ha, 0 to 100 scale): 0
Soybean plant response rating (0-100) [9, 28]: 0
Barnyardgrass plant response rating ([10]; 16 g ai/ha, 0 to 100 scale): 0
Barnyardgrass plant response rating (0-100) [10, 28]: 0
Corn plant response rating ([11]; 16 g ai/ha, 0 to 100 scale): 0
Corn plant response rating (0-100) [11, 28]: 0
Plant response rating, Sedge, Umbrella (0 to 100 scale, 0 is no effect and 100 is complete control) [12]: 0
Plant response rating, Rice (0 to 100 scale, 0 is no effect and 100 is complete control) [13]: 0
Plant response rating, Barnyardgrass (0 to 100 scale, 0 is no effect and 100 is complete control) [14]: 0
Plant response rating, Ducksalad (0 to 100 scale, 0 is no effect and 100 is complete control) [15]: 0
Horseweed plant response rating (0-100) [16, 29]: 20
Horseweed plant response rating (0 to 100 scale) [16, 30]: 0
Ragweed plant response rating (0-100) [17, 29]: 0
Ragweed plant response rating (0 to 100 scale) [17, 30]: 0
Foxtail, Green plant response rating (0-100) [18, 29]: 0
Foxtail, Green plant response rating (0 to 100 scale) [18, 30]: 0
Wheat plant response rating (0-100) [19, 29]: 0
Wheat plant response rating (0 to 100 scale) [19, 30]: 0
Ryegrass, Italian plant response rating (0-100) [20, 29]: 0
Ryegrass, Italian plant response rating (0 to 100 scale) [20, 30]: 0
Blackgrass plant response rating (0-100) [21, 29]: 30
Blackgrass plant response rating (0 to 100 scale) [21, 30]: 0
Kochia plant response rating (0-100) [22, 29]: 0
Kochia plant response rating (0 to 100 scale) [22, 30]: 0
Oat, Wild plant response rating (0-100) [23, 29]: 0
Oat, Wild plant response rating (0 to 100 scale) [23, 30]: 0
Pigweed, Palmer plant response rating (0-100) [24, 29]: 40
Pigweed, Palmer plant response rating (0 to 100 scale) [24, 30]: 0
Soybean plant response rating (0-100) [25, 29]: 0
Soybean plant response rating (0 to 100 scale) [25, 30]: 0
Barnyardgrass plant response rating (0-100) [26, 29]: 20
Barnyardgrass plant response rating (0 to 100 scale) [26, 30]: 0
Corn plant response rating (0-100) [27, 29]: 0
Corn plant response rating (0 to 100 scale) [27, 30]: 0
